Measured values as given in patent US8822449B2, “Substituted aminoindanes and analogs thereof, and the pharmaceutical use thereof” (Sanofi, priority 2008, dated 2014).

What follows are compounds tested against T1, sodium-proton exchanger of subtype 3 (NHE3) (Homo sapiens, UniProt P48764) (assay: Recovery of intracellular pH (pHi) after acidification in LAP1 cells stably expressing NHE3 (BCECF fluorescence, FLIPR)). Settings: Activity range (inhibitory effect on NHE3), LAP1 cells stably expressing NHE3; pH recovery after acidification; range 1 is % inhibition at 10 μM.
T1 construct: expressed in transfected cells
T1 sequence (P48764 26-834): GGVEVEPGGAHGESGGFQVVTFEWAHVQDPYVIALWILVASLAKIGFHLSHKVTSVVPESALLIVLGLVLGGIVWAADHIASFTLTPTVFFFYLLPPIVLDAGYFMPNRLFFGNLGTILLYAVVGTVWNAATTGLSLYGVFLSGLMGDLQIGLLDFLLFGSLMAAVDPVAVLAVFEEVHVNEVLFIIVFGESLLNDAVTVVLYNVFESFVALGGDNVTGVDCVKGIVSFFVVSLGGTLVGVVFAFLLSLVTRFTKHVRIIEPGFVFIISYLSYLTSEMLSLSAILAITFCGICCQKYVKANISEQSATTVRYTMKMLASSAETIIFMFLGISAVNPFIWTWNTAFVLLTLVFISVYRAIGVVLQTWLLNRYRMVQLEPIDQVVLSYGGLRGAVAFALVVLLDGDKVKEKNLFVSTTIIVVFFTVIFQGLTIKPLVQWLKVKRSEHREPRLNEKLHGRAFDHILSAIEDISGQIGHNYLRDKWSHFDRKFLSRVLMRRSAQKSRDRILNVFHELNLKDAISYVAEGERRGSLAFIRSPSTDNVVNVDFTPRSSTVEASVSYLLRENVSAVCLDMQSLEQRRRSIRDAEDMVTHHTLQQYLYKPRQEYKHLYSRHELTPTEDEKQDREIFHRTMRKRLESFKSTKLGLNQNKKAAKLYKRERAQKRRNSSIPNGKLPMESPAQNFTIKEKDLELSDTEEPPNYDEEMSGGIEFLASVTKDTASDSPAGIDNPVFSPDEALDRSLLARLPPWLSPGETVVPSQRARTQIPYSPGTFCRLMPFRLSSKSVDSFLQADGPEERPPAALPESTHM
Type: cell-based

SMILES | IC50 [nM]
CN(C)S(=O)(=O)c1ccc(O[C@@H]2c3ccccc3C[C@H]2N2CCCC2)c(Cl)c1Cl (racemic) [Example 362, 2,3-dichloro-N,N-dimethyl-4-(rac-trans-(1,2)-2-pyrrolidin-1-ylindan-1-yloxy)benzenesulfonamide] | < 1000

Same assay, conditions: LAP1 cells stably expressing NHE3; pH recovery after acidification; range 1 is % inhibition at 10 μM; read-out: Activity range (inhibitory effect on NHE3)

IC50 [nM] | inhibition at 10 µM [%] | SMILES
1000 to 10000 |  | NC1CCN([C@@H]2Cc3ccccc3[C@H]2Oc2ccc(NC(=O)OCc3ccccc3)cc2)C1 (mixture of isomers) [Example 241, {4-[rac-trans-(1,2)-2-(3-aminopyrrolidin-1-yl)indan-1-yloxy]phenyl}carbamic acid benzyl ester]
1000 to 10000 |  | O=C1CCC(=O)N1c1cccc(O[C@H]2c3cc(Cl)cc(Cl)c3C[C@@H]2N2CC[C@@H](O)C2)c1 [Example 316, 1-{3-[(1S,2S)-4,6-dichloro-2-((R)-3-hydroxypyrrolidin-1-yl)indan-1-yloxy]phenyl}pyrrolidine-2,5-dione]
1000 to 10000 |  | CCN(CC)[C@@H]1Cc2ccccc2[C@H]1Oc1ccc2sc(C)nc2c1 (racemic) [Example 625, Diethyl-[rac-trans-(1,2)-1-(2-methylbenzothiazol-5-yloxy)indan-2-yl]amine]
< 1000 |  | Cc1nnc(C)n1-c1ccc(O[C@H]2c3ccccc3C[C@@H]2N2CCCC2)c(C(F)(F)F)c1 [Example 406, 3,5-dimethyl-4-[4-(trans-(1S,2S)-2-pyrrolidin-1-ylindan-1-yloxy)-3-trifluoromethylphenyl]-4H-[1,2,4]triazole]
1000 to 10000 |  | CN1CCN([C@H]2Cc3c(Cl)cc(Cl)cc3[C@@H]2Oc2ccc(S(C)(=O)=O)cc2)CC1 [Example 306, 1-[trans-(1S,2S)-4,6-dichloro-1-(4-methanesulfonylphenoxy)indan-2-yl]-4-methylpiperazine]
< 1000 |  | NS(=O)(=O)c1ccc(O[C@H]2c3cc(Cl)ccc3C[C@@H]2N2CCCC2)cc1 (racemic) [Example 473, 4-(rac-trans-(1,2)-6-chloro-2-pyrrolidin-1-ylindan-1-yloxy)benzenesulfonamide]
< 1000 |  | N[C@@H]1CCCN([C@H]2Cc3c(Cl)cc(Cl)cc3[C@@H]2Oc2ccc(S(N)(=O)=O)cc2)C1 [Example 480, 4-[(1S,2S)-2-((R)-3-aminopiperidin-1-yl)-4,6-dichloroindan-1-yloxy]benzenesulfonamide]
< 1000 |  | Cc1nnc(C)n1-c1ccc(O[C@H]2c3cc(Cl)ccc3C[C@@H]2N2CC[C@@H](F)C2)c(Cl)c1 [Example 558, 4-{3-chloro-4-[trans-(1S,2S)-6-chloro-2-((R)-3-fluoropyrrolidin-1-yl)indan-1-yloxy]phenyl}-3,5-dimethyl-4H-[1,2,4]triazole]
< 1000 |  | Cc1nnc(C)n1-c1ccc(O[C@H]2c3cc(Cl)cc(Cl)c3C[C@@H]2N2CC[C@@H](O)C2)c(Cl)c1 [Example 122, (R)-1-{trans-(1S,2S)-4,6-dichloro-1-[2-chloro-4-(3,5-dimethyl-[1,2,4]triazol-4-yl)phenoxy]indan-2-yl}pyrrolidin-3-ol]
< 1000 |  | Cc1nnc(C)n1-c1ccc(O[C@H]2c3cc(Cl)ccc3C[C@@H]2N2CC[C@@H](O)C2)cc1 [Example 145, (R)-1-{trans-(1S,2S)-6-chloro-1-[4-(3,5-dimethyl-[1,2,4]triazol-4-yl)phenoxy]indan-2-yl}pyrrolidin-3-ol]
1000 to 10000 |  | Cc1c(Cl)ccc(O[C@@H]2c3ccccc3C[C@H]2N2C[C@H]3CNC[C@H]3C2)c1Cl (racemic) [Example 4, 2-[rac-trans-(1,2)-1-(2,4-dichloro-3-methylphenoxy)indan-2-yl]octahydropyrrolo[3,4-c]pyrrole]
1000 to 10000 |  | COC(=O)c1ccc(O[C@H]2c3cc(Cl)cc(Cl)c3C[C@@H]2N2CC[C@@H](O)C2)c(F)c1 [Example 553, 4-[trans-(1S,2S)-4,6-dichloro-2-((R)-3-hydroxypyrrolidin-1-yl)indan-1-yloxy]-3-fluorobenzoic acid methyl ester]
< 1000 |  | CC(=O)Nc1cccc(O[C@H]2c3ccccc3C[C@@H]2N2CCCC2)n1 (racemic) [Example 668, N-[6-(rac-trans-(1,2)-2-pyrrolidin-1-ylindan-1-yloxy)-pyridin-2-yl]acetamide]
1000 to 10000 |  | NCC1CCN([C@@H]2Cc3ccccc3[C@H]2Oc2cccc(C(N)=O)c2)C1 (mixture of isomers) [Example 414, 3-[rac-trans-(1,2)-2-(3-aminomethylpyrrolidin-1-yl)indan-1-yloxy]benzamide]
< 1000 |  | Cc1noc(C)c1-c1ccc(O[C@H]2c3ccccc3C[C@@H]2N2CCCC2)cc1 [Example 407, 3,5-dimethyl-4-[4-(trans-(1S,2S)-2-pyrrolidin-1-ylindan-1-yloxy)phenyl]-isoxazole]
1000 to 10000 |  | Cc1nnc(C)n1-c1ccc(O[C@H]2c3cc(Cl)ccc3C[C@@H]2N2CCS(=O)(=O)CC2)c(Cl)c1 [Example 567, 4-{trans-(1S,2S)-6-chloro-1-[2-chloro-4-(3,5-dimethyl-[1,2,4]triazol-4-yl)phenoxy]indan-2-yl}thiomorpholine 1,1-dioxide]
1000 to 10000 |  | Cc1nc2cc(O[C@@H]3c4ccccc4C[C@H]3N3CCC(CN)C3)ccc2s1 (mixture of isomers) [Example 608, C-{1-[rac-trans-(1,2)-1-(2-methylbenzothiazol-5-yloxy)indan-2-yl]pyrrolidin-3-yl}methylamine]
1000 to 10000 |  | CN(C1CCCNC1)[C@@H]1Cc2ccccc2[C@H]1Oc1ccc(S(N)(=O)=O)c(Cl)c1Cl (mixture of isomers) [Example 360, 2,3-dichloro-4-[rac-trans-(1,2)-2-(methylpiperidin-3-ylamino)indan-1-yloxy]benzenesulfonamide]
< 1000 |  | CS(=O)(=O)c1ccc(O[C@H]2c3cc(Cl)cc(Cl)c3C[C@@H]2N2CCC[C@H]2CN2CCCC2)cc1 [Example 195, (S)-1-[trans-(1S,2S)-4,6-dichloro-1-(4-methanesulfonylphenoxy)indan-2-yl]-2-pyrrolidin-1-ylmethylpyrrolidine]
 | 20 to 50 | Cc1ccc(F)c(O[C@H]2c3ccccc3CC[C@@H]2N2CCC[C@@H](N)C2)c1 (racemic) [Example 43, (R)-1-[rac-trans-(1,2)-1-(2-fluoro-5-methylphenoxy)-1,2,3,4-tetrahydronaphthalen-2-yl]piperidin-3-ylamine]
1000 to 10000 |  | CC(=O)Nc1cccc(O[C@@H]2c3ccccc3C[C@H]2N2CCC(CN)C2)c1 (mixture of isomers) [Example 686, N-{3-[rac-trans-(1,2)-2-(3-aminomethylpyrrolidin-1-yl)indan-1-yloxy]phenyl}acetamide]
1000 to 10000 |  | CS(=O)(=O)c1ccc(O[C@H]2c3ccccc3C[C@@H]2NC2CCCC2)cc1 (racemic) [Example 623, Cyclopentyl-[1-(4-methanesulfonylphenoxy)indan-2-yl]amine]
1000 to 10000 |  | CC(=O)Nc1cccc(O[C@@H]2c3ccccc3C[C@H]2N2CCSCC2)c1 (racemic) [Example 642, N-[3-(rac-trans-(1,2)-2-thiomorpholin-4-ylindan-1-yloxy)phenyl]acetamide]
 | 20 to 50 | Cc1nc(C)c(-c2ccc(O[C@H]3c4cc(Cl)cc(Cl)c4C[C@@H]3N3CC[C@@H](O)C3)cc2)s1 [Example 125, (R)-1-{trans-(1S,2S)-4,6-dichloro-1-[4-(2,4-dimethyl-thiazol-5-yl)phenoxy]indan-2-yl}pyrrolidin-3-ol]
 | 20 to 50 | COc1cccc(F)c1O[C@@H]1c2cc(Cl)cc(Cl)c2C[C@H]1N1CCC[C@@H](N)C1 [Example 94, (R)-1-[trans-(1R,2R)-4,6-dichloro-1-(2-fluoro-6-methoxyphenoxy)indan-2-yl]piperidin-3-ylamine]
1000 to 10000 |  | c1ccc2c(c1)C[C@@H](N1C[C@H]3CNC[C@H]3C1)[C@@H]2Oc1ccc2ccncc2c1 (racemic) [Example 589, 7-[rac-trans-(1,2)-2-(Hexahydropyrrolo[3,4-c]pyrrol-2-yl)indan-1-yloxy]isoquinoline]
< 1000 |  | CN(C)[C@@H]1CCCN([C@H]2Cc3c(Cl)cc(Cl)cc3[C@@H]2Oc2ccc(S(C)(=O)=O)cc2)C1 [Example 224, {(R)-1-[trans-(1S,2S)-4,6-dichloro-1-(4-methanesulfonylphenoxy)indan-2-yl]piperidin-3-yl}-dimethylamine]
< 1000 |  | CC(=O)Nc1cccc(O[C@H]2c3cc(Cl)cc(Cl)c3C[C@@H]2N2CCC[C@@H](N(C)C)C2)c1 [Example 694, N-{3-[trans-(1S,2S)-4,6-dichloro-2-((R)-3-dimethylaminopiperidin-1-yl)indan-1-yloxy]phenyl}acetamide]
1000 to 10000 |  | CN1CCN(S(=O)(=O)c2ccc(O[C@H]3c4cc(Cl)cc(Cl)c4C[C@@H]3N3CC[C@@H](O)C3)cc2)CC1 [Example 742, (R)-1-{trans-(1S,2S)-4,6-Dichloro-1-[4-(4-methyl-piperazine-1-sulfonyl)-phenoxy]-indan-2-yl}-pyrrolidin-3-ol]
